ChEMBL document CHEMBL1201862, “PubChem BioAssay data set” (2004)
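Grown in 96-well plates, cells were treated for 48 hours with each compound at five concentrations. Insufficient inhibition: endpoint recorded as highest concentration tested. Abbreviation: GI50, concentration required for 50% inhibition of growth.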 Calls of active or inactive are those of the source. No stated cut-off is given here; in the data, active = GI50 up to about 1.1 µM and inactive = higher.

Assays:
Assay in all cases: NCI-60 cell line screen, 48 h
OVCAR-3 = tested on: OVCAR-3
NCI-H23 = tested on: NCI-H23
MDA-N = tested on: MDA-N
DU-145 = tested on: DU-145
SW-620 = tested on: SW-620
UACC-257 = tested on: UACC-257
SK-OV-3 = tested on: SK-OV-3
SR = tested on: SR
MDA-MB-435 = tested on: MDA-MB-435
RPMI-8226 = tested on: RPMI-8226
HCC 2998 = tested on: HCC 2998
SN12C = tested on: SN12C
TK-10 = tested on: TK-10
M14 = tested on: M14
IGROV-1 = tested on: IGROV-1
NCI-H226 = tested on: NCI-H226
CAKI-1 = tested on: CAKI-1
SK-MEL-28 = tested on: SK-MEL-28
MOLT-4 = tested on: MOLT-4
HL-60 = tested on: HL-60

SMILES	GI50 (OVCAR-3)	GI50 (NCI-H23)	GI50 (MDA-N)	GI50 (DU-145)	GI50 (SW-620)	GI50 (UACC-257)	GI50 (SK-OV-3)	GI50 (SR)	GI50 (MDA-MB-435)	GI50 (RPMI-8226)	GI50 (HCC 2998)	GI50 (SN12C)	GI50 (TK-10)	GI50 (M14)	GI50 (IGROV-1)	GI50 (NCI-H226)	GI50 (CAKI-1)	GI50 (SK-MEL-28)	GI50 (MOLT-4)	GI50 (HL-60)
CC(=O)OCC(OC(C)=O)C(OC(C)=O)C(OC(C)=O)C(C=NN(C(C)=O)S(=O)(=O)c1ccc(/C=C2\NC(=O)N(C)C2=O)cc1)OC(C)=O (stereo not drawn)	41.4 µM (inactive)	34.5 µM (inactive)	35.7 µM (inactive)	33 µM (inactive)	34.4 µM (inactive)	43.9 µM (inactive)	48.5 µM (inactive)	23.4 µM (inactive)	36.3 µM (inactive)	24.2 µM (inactive)	30.5 µM (inactive)	27.8 µM (inactive)	3.35 µM (inactive)	69.2 µM (inactive)	31.6 µM (inactive)	38.7 µM (inactive)	40.2 µM (inactive)	–	–	–
NS(=O)(=O)c1nnc(NC(=O)/C=C/C(=O)O)s1	> 100 µM (inactive)	> 100 µM (inactive)	> 100 µM (inactive)	> 100 µM (inactive)	> 100 µM (inactive)	> 100 µM (inactive)	> 100 µM (inactive)	> 100 µM (inactive)	> 100 µM (inactive)	> 100 µM (inactive)	> 100 µM (inactive)	> 100 µM (inactive)	> 100 µM (inactive)	> 100 µM (inactive)	–	–	> 100 µM (inactive)	> 100 µM (inactive)	> 100 µM (inactive)	> 100 µM (inactive)
O=C(Nc1ccccc1F)c1cc2ccc(O)cc2o/c1=N\c1cccc(F)c1	11.5 µM (inactive)	2.16 µM (inactive)	14.6 µM (inactive)	15 µM (inactive)	9.04 µM (inactive)	19.5 µM (inactive)	28.1 µM (inactive)	12.9 µM (inactive)	14.8 µM (inactive)	3.24 µM (inactive)	15.3 µM (inactive)	–	–	15.7 µM (inactive)	3.66 µM (inactive)	–	19.5 µM (inactive)	12.3 µM (inactive)	4.41 µM (inactive)	5.28 µM (inactive)
CN(C)c1ccc(C2C(Cl)C(=O)N2NC(=O)c2c(Cl)c(Cl)c(Cl)c(Cl)c2-c2nc3ccccc3[nH]2)cc1 (stereo not drawn)	19.4 µM (inactive)	12.5 µM (inactive)	5.77 µM (inactive)	6.92 µM (inactive)	4.29 µM (inactive)	20.5 µM (inactive)	33.7 µM (inactive)	0.685 µM (active)	4.76 µM (inactive)	–	16.3 µM (inactive)	11.1 µM (inactive)	–	13.3 µM (inactive)	1.62 µM (inactive)	15.8 µM (inactive)	15.6 µM (inactive)	28.1 µM (inactive)	2.68 µM (inactive)	3.3 µM (inactive)
CN(/N=C/c1cccs1)c1ccc([N+](=O)[O-])cc1[N+](=O)[O-]	> 100 µM (inactive)	> 100 µM (inactive)	> 100 µM (inactive)	> 100 µM (inactive)	> 100 µM (inactive)	> 100 µM (inactive)	> 100 µM (inactive)	> 100 µM (inactive)	> 100 µM (inactive)	> 100 µM (inactive)	> 100 µM (inactive)	> 100 µM (inactive)	> 100 µM (inactive)	> 100 µM (inactive)	> 100 µM (inactive)	–	> 100 µM (inactive)	> 100 µM (inactive)	> 100 µM (inactive)	> 100 µM (inactive)
CCCCN(CCCC)C1(c2cc3ccccc3s2)CCCCC1.[O-][Cl+3]([O-])([O-])O	15.7 µM (inactive)	15.5 µM (inactive)	15.4 µM (inactive)	16.3 µM (inactive)	15 µM (inactive)	18.1 µM (inactive)	20.4 µM (inactive)	16.3 µM (inactive)	13.3 µM (inactive)	–	14.1 µM (inactive)	21.4 µM (inactive)	17.3 µM (inactive)	14.6 µM (inactive)	15.5 µM (inactive)	17.6 µM (inactive)	18.7 µM (inactive)	18.4 µM (inactive)	13.6 µM (inactive)	17.7 µM (inactive)
